In patent US10287267B2, “Isoquinolin-3-yl carboxamides and preparation and use thereof” (Samumed, LLC, priority 2016, dated 2019):
Like-named read-outs stand apart in the source and are kept apart here.

Assays:
[1] = test system: α-smooth muscle actin (αSMA) positive LL29 cells; assay: Inhibition of fibrotic process: αSMA in TGF-β1 treated primary human fibroblasts from IPF patients; assay type: cell-based; details: Homo sapiens, Fibroblast; for EC50: 96 h, Table 8, LL29 fibroblasts from IPF patients, TGF-β1 20 ng/mL, 4 days, dose-response 10 μM to 0.94 nM; for inhibition at 10 µM: read-out: percent value in parentheses beside EC50 >10 μM;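 for all read-outs here: controls were TGF-β1 stimulated wells with DMSO vehicle (positive) and cells given DMSO alone (negative), cultured in F12 medium with 1% fetal bovine serum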
[2] = target: recombinant DYRK1A kinase (Homo sapiens (Human), UniProt Q13627); assay: DYRK1A kinase assay (Ser/Thr 18 peptide Z-lyte FRET); assay type: biochemical; details: 30 μM ATP, 1 h room temperature;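 note: Read-out is the coumarin to fluorescein emission ratio, referenced to unphosphorylated (0%) and phosphorylated (100%) Ser/Thr 18 peptide controls, values from dose-response curves by non-linear regression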
[3] = test system: Wnt pathway (Sp5-Luc reporter, TCF/LEF binding sites) in SW480 colon carcinoma cells; assay: Screening assay for Wnt activity: Sp5-Luc reporter gene assay; assay type: cell-based, human; details: Homo sapiens; for EC50: Sp5-Luc reporter, SW480 cells, 36 to 48 hours; for inhibition at 10 µM: SW480, read-out: percent inhibition at 10 μM;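 for all read-outs here: firefly luciferase luminescence read in stably transduced SW480 cells carrying the Sp5 promoter reporter with eight TCF/LEF sites, compounds given in 0.1% DMSO final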
Method: The screening assay for Wnt activity is described as follows.
Following incubation, 15 μl of BriteLite Plus luminescence reagent (Perkin Elmer) was added to each well of the 384-well assay plates. The plates were placed on an orbital shaker for 2 min and then luminescence was quantified using the Envision (Perkin Elmer) plate reader.

[4] = test system: SW480 colon carcinoma cells; assay: Cell viability assay (CellTiter-Glo); assay type: cell-based, human; details: Homo sapiens; for EC50: 96 h, SW480 cells, CellTiter-Glo, four days incubation; for inhibition at 10 µM: SW480, read-out: percent inhibition at 10 μM
[5] = test system: Tau phosphorylation at Ser396 (pSer396); assay: Tau phosphorylation assay (pSer396 ELISA / western blot) in SH-SY5Y cells; assay type: cell-based, human; details: Homo sapiens, read-out: pSer396 Tau EC50;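 note: EC50 for reduction of Tau pSer396 in lysed cells, measured by colorimetric ELISA or chemiluminescent western blot, both using the same pSer396 antibody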
[6] = test system: IL-6; assay: IL-6 inhibition in LPS-stimulated human peripheral blood mononuclear cells (HTRF); assay type: cell-based; details: Homo sapiens, PBMC; for EC50: Table 9, huPBMCs, LPS 50 ng/mL, 22 hours, dose-response starting from 10 μM; for inhibition at 10 µM: read-out: percent value in parentheses beside EC50 >10 μM;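 for all read-outs here: IL-6 detected by HTRF with an XL665- and Cryptate-labelled anti-IL-6 antibody pair, samples run in duplicate, EC50 obtained from a four-parameter Levenberg-Marquardt curve fit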
Method: After 22 hour incubation, a mixture of anti-IL6 XL665 and anti-IL-6 Cryptate diluted in reconstitution buffer (Catalog #62IL6PEC, Cisbio Inc., Bedford, Mass.) was added to each well. […] All samples were processed in duplicate. […] EC50 was determined using software generated by Dotmatics Limited (Windhill Bishops Stortford Herts, UK) using the Levenberg-Marquardt 4 parameter fitting procedure with finite different gradients.

[7] = target: recombinant GSK3β kinase (Homo sapiens (Human), UniProt P49841); assay: GSK3β kinase assay (Ser/Thr 09 peptide Z-lyte FRET); assay type: biochemical; details: 46 μM ATP, 1 h room temperature;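 note: kinase activity read as coumarin to fluorescein emission ratio, 11-point threefold dilutions from 10 µM to 0.0003 µM in duplicate, unphosphorylated and phosphorylated peptide as 0% and 100% controls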
[8] = SH-SY5Y cells, overnight (16-18 h) exposure

Sequence of recombinant GSK3β kinase (P49841 whole entry): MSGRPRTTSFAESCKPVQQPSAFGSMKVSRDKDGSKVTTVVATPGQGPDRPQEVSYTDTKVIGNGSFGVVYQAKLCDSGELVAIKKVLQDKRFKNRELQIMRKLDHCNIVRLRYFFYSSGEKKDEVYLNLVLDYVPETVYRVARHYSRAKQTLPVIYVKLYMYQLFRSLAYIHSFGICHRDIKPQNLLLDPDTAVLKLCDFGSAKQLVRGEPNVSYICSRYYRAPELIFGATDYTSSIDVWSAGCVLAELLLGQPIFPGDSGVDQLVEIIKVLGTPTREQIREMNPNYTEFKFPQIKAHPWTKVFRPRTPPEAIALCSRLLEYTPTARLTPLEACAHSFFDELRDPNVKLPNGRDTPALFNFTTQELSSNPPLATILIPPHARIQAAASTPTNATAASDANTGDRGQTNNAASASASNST

Row | Compound | EC50 [1] [nM] | EC50 [2] [nM] | EC50 [3] [nM] | EC50 [4] [nM] | EC50 [5, 8] [nM] | EC50 [6] [nM] | EC50 [7] [nM] | inhibition at 10 µM [4] [%] | EC50 ([5]; SH-SY5Y) [nM] | inhibition at 10 µM [6] [%] | inhibition at 10 µM [3] [%] | inhibition at 10 µM [1] [%]
1 | CC(C)CN1CCN(CC(=O)Nc2cc3cc(-c4cnn(C)c4)ccc3cn2)CC1 [Compound 272, 2-(4-Isobutylpiperazin-1-yl)-N-[6-(1-methylpyrazol-4-yl)-3-isoquinolyl]acetamide] | 2540 | 14 | 3750 | 5870 | 1660 | 3100 | 105 | – | – | – | – | –
2 | Cn1cc(-c2ccc3cnc(NC(=O)CN4CC(C)(C)C4)cc3c2)cn1 [Compound 273, 2-(3,3-Dimethylazetidin-1-yl)-N-[6-(1-methylpyrazol-4-yl)-3-isoquinolyl]acetamide] | 515 | 10.7 | 1510 | 1180 | 492 | 842 | 48 | – | – | – | – | –
3 | Cn1cc(-c2ccc3cnc(NC(=O)CN4CC[C@@H](F)C4)cc3c2)cn1 [Compound 274, 2-[(3R)-3-fluoropyrrolidin-1-yl]-N-[6-(1-methylpyrazol-4-yl)-3-isoquinolyl]acetamide] | 195 | 5.9 | 3720 | 4050 | 535 | 3220 | 25 | – | – | – | – | –
4 | Cn1cncc1-c1ccc2cnc(NC(=O)CN3CCCCC3)cc2c1 [Compound 275, N-[6-(3-methylimidazol-4-yl)-3-isoquinolyl]-2-(1-piperidyl) acetamide] | 431 | 4.7 | 1920 | 1280 | 232 | 1140 | 115 | – | – | – | – | –
5 | Cn1cc(-c2ccc3cnc(NC(=O)CN4CCCCC4)cc3c2)nn1 [Compound 276, N-(6-(1-methyl-1H-1,2,3-triazol-4-yl)isoquinolin-3-yl)-2-(piperidin-1-yl) acetamide] | 336 | 5.1 | 5180 | > 10000 | 150 | 2920 | 6 | 29.6 | – | – | – | –
6 | Cn1cc(-c2ccc3cnc(NC(=O)C4C(C)(C)C4(C)C)cc3c2)nn1 [Compound 277, 2,2,3,3-Tetramethyl-N-(6-(1-methyl-1H-1,2,3-triazol-4-yl)isoquinolin-3-yl) cyclopropane-1-carboxamide] | 245 | 2.3 | 5260 | 1400 | – | > 10000 | 104 | – | 1080 | 4 | – | –
7 | Cc1nnc(-c2ccc3cnc(NC(=O)C4CCN(CCC(F)(F)F)CC4)cc3c2)n1C [Compound 279, N-(6-(4,5-Dimethyl-4H-1,2,4-triazol-3-yl)isoquinolin-3-yl)-1-(3,3,3-trifluoropropyl)piperidine-4-carboxamide] | 1200 | 7.8 | 5650 | > 10000 | 498 | > 10000 | 14 | 52.4 | – | 14.2 | – | –
8 | CC(C)CN1CCC(F)(C(=O)Nc2cc3cc(-c4nncn4C)ccc3cn2)CC1 [Compound 280, 4-Fluoro-1-isobutyl-N-(6-(4-methyl-4H-1,2,4-triazol-3-yl)isoquinolin-3-yl) piperidine-4-carboxamide] | 909 | 10.8 | 2320 | 9570 | 677 | > 10000 | 185 | – | – | 11.6 | – | –
9 | CC(C)CN1CCC(F)(C(=O)Nc2cc3cc(-c4cn(C)nn4)ccc3cn2)CC1 [Compound 281, 4-Fluoro-1-isobutyl-N-(6-(1-methyl-1H-1,2,3-triazol-4-yl)isoquinolin-3-yl) piperidine-4-carboxamide] | 486 | 8.1 | > 10000 | > 10000 | 518 | > 10000 | 71 | – | – | 0 | 47 | –
10 | CCN1CCC(F)(C(=O)Nc2cc3cc(-c4cn(C)nn4)ccc3cn2)CC1 [Compound 282, 1-Ethyl-4-fluoro-N-(6-(1-methyl-1H-1,2,3-triazol-4-yl)isoquinolin-3-yl) piperidine-4-carboxamide] | 1940 | 11.5 | > 10000 | 6610 | 973 | > 10000 | 134 | – | – | 2.4 | 49.3 | –
11 | O=C(Nc1cc2cc(-c3cnn4c3CN(CCF)CC4)ccc2cn1)C1CCC(F)(F)CC1 [Compound 283, 4,4-Difluoro-N-(6-(5-(2-fluoroethyl)-4,5,6,7-tetrahydropyrazolo[1,5-a]pyrazin-3-yl)isoquinolin-3-yl)cyclohexane-1-carboxamide] | 782 | 7 | 2490 | 3120 | 411 | 5450 | 62 | – | – | – | – | –
12 | Cn1cc(-c2ccc3cnc(NC(=O)CN4CCCC4)cc3c2)cn1 [Compound 284, N-(6-(1-Methyl-1H-pyrazol-4-yl)isoquinolin-3-yl)-2-(pyrrolidin-1-yl) acetamide] | 2340 | 7.1 | 1870 | 2670 | 359 | 1180 | 37 | – | – | – | – | –
13 | CCn1cc(-c2ccc3cnc(NC(=O)CN4CCCC4)cc3c2)cn1 [Compound 285, N-(6-(1-Ethyl-1H-pyrazol-4-yl)isoquinolin-3-yl)-2-(pyrrolidin-1-yl) acetamide] | 1470 | 44.2 | 3400 | 7020 | 1580 | 2270 | 149 | – | – | – | – | –
14 | O=C(CN1CCCC1)Nc1cc2cc(-c3cnn(C4CC4)c3)ccc2cn1 [Compound 286, N-(6-(1-Cyclopropyl-1H-pyrazol-4-yl)isoquinolin-3-yl)-2-(pyrrolidin-1-yl) acetamide] | > 10000 | 64.9 | 3140 | 3290 | 1150 | 1230 | 186 | – | – | – | – | 16.4
15 | CC(C(=O)Nc1cc2cc(-c3cnn(C)c3)ccc2cn1)N1CCCC1 (centres unmarked) [Compound 288, N-(6-(1-Methyl-1H-pyrazol-4-yl)isoquinolin-3-yl)-2-(pyrrolidin-1-yl) propanamide] | 532 | 27.3 | 1200 | 2660 | 159 | 1240 | 20 | – | – | – | – | –
16 | C[C@@H]1CCCN1CC(=O)Nc1cc2cc(-c3cnn(C)c3)ccc2cn1 [Compound 289, (R)—N-(6-(1-Methyl-1H-pyrazol-4-yl)isoquinolin-3-yl)-2-(2-methylpyrrolidin-1-yl)acetamide] | > 10000 | 13.7 | 2650 | 7760 | 185 | 3200 | 62 | – | – | – | – | 14.3
17 | C[C@H]1CCCN1CC(=O)Nc1cc2cc(-c3cnn(C)c3)ccc2cn1 [Compound 290, (S)—N-(6-(1-Methyl-1H-pyrazol-4-yl)isoquinolin-3-yl)-2-(2-methylpyrrolidin-1-yl)acetamide] | 1060 | 5.8 | 5230 | 3780 | 490 | 4780 | 75 | – | – | – | – | –
18 | Cn1cc(-c2ccc3cnc(NC(=O)CN4CC5CC5C4)cc3c2)cn1 (centres unmarked) [Compound 291, 2-(3-Azabicyclo[3.1.0]hexan-3-yl)-N-(6-(1-methyl-1H-pyrazol-4-yl)isoquinolin-3-yl)acetamide] | > 10000 | 8.2 | 4640 | > 10000 | 716 | 9830 | 43 | 24.4 | – | – | – | 49.6
19 | Cn1cc(-c2ccc3cnc(NC(=O)CN4C5CCC4CC5)cc3c2)cn1 [Compound 292, 2-(7-Azabicyclo[2.2.1]heptan-7-yl)-N-(6-(1-methyl-1H-pyrazol-4-yl)isoquinolin-3-yl)acetamide] | 2220 | 7.8 | 3380 | 2820 | – | 1120 | 173 | – | 1350 | – | – | –
20 | CC1CCN(CC(=O)Nc2cc3cc(-c4cnn(C)c4)ccc3cn2)CC1 [Compound 293, N-(6-(1-Methyl-1H-pyrazol-4-yl)isoquinolin-3-yl)-2-(4-methylpiperidin-1-yl)acetamide] | 7770 | 5 | 3220 | 2860 | 668 | 1170 | 59 | – | – | – | – | –
21 | Cn1cc(-c2ccc3cnc(NC(=O)CN4CCC(C(F)(F)F)CC4)cc3c2)cn1 [Compound 294, N-(6-(1-Methyl-1H-pyrazol-4-yl)isoquinolin-3-yl)-2-(4-(trifluoromethyl)piperidin-1-yl)acetamide] | > 10000 | 12.4 | 5190 | 4150 | 905 | 6230 | 41 | – | – | – | – | 41.3
